What all share (assay): Cell proliferation IC50 (Cell Titer Glo)
Format in all cases: cell-based
In general terms: In ATP-based viability assays light output follows the ATP content of the culture.

The subject of test [1] is HT-29. The following applies: Homo sapiens, read-out: IC50 cell proliferation. As to the method:
(§1) IC50 Cell proliferation measurements. Cell proliferation was assessed in the 41 tumor cell lines set forth in Table 2 after 4 days of continuous exposure to either the ERK1/2 inhibitor, compound a or the MEK inhibitor compound b (PD0325901) using Promega Cell Titer Glo reagent (Promega Corp, Madison, Wis.). Promega's CellTiter-Glo™ Luminescent Cell Viability Assay is a sensitive method for assaying cell proliferation using a stable form of luciferase to measure ATP as an indicator of viable cells. This reagent allows a homogeneous method of determining cell number by quantitation of ATP. The luciferase luminescent signal produced is proportional to the number of viable cells present in culture.
(§2) A 1000× compound dose response curve, containing 8 dilutions of each compound, was prepared on a 96-well plate. Compounds were diluted in 100% DMSO to the following (1000×) concentrations: compound b: 1000 μM, 333 μM, 111 μM, 37 μM, 12 μM, 4.1 μM, 1.4 μM and 0.5 μM; compound a: 3000 μM, 1000 μM, 333 μM, 111 μM, 37 μM, 12 μM, 4.1 μM and 1.4 μM. This compound source plate was sealed and kept frozen between uses.
(§3) Cells were grown in RPMI 1640 medium supplemented with 10% Fetal Bovine Serum, 2 mM Glutamine and non-essential amino acids or DMEM/F12 Media containing the same supplements. On day zero, cells were trypsinized, counted and plated into wells of a 96-well Wallac TC Isoplate (Perkin-Elmer Wallac, Gaithersburg, Md.) at a density of 1500-2000 cells per well in 50 μl of complete media. An additional 6-8 replicate well of the cells at the same density were plated on a separate Wallac TC Isoplate. This plate was developed on day 1 to determine the cell-growth baseline.
(§4) On day 1 of treatment, compound was diluted to 2× in media and immediately added to the cells as follows: one ml of media was added to each well of a deep-well 96-well plate and 2 μl of 1000× compound was added with mixing to make 2× compound in media. 50 μl of the media containing 2× compound was added to the cell plates in duplicate points so the final concentrations for each well were as outlined in Table 1. The plates were then returned to a 37° C. incubator and left undisturbed for 4 days. The day 1 (baseline) plates were developed by first adding 50 μl media (without compound) to bring the volume in each well to 100 μl, then adding 100 μl of Cell Titer Glo reagent (as below).
(§5) After four days of treatment, the plates were developed with Cell Titer Glo (CTG) reagent (Promega Corp.; Madison, Wis.). Reagent was reconstituted as described in the product insert. 100 μl of reagent was added to all treatment and control wells and the plates were gently shaken for 5 minutes then incubated an additional 5 minutes before reading in an Analyst AD (Molecular Devices Corporation; Sunnyvale, Calif.) using the Luminescence settings.
(§6) Data was analyzed in Excel using XLfit 4.2, fit model #205 (Dose Response One Site)

Test [2] has as its system LOX. The following applies: Homo sapiens, 96 h, read-out: IC50 cell proliferation. The protocol: as §1, §2, §3, §4, §5, §6
The test system of test [3] is Jijoye. The following applies: Homo sapiens, 96 h, read-out: IC50 cell proliferation. As to the method:
as §1, §2, §3, §4, §5, §6

In test [4] the test system is N-87. The following applies: Homo sapiens, 96 h, read-out: IC50 cell proliferation. As to the method: as §1, §2, §3, §4, §5, §6
In test [5] the test system is SK-Mel-31. The settings on record: Homo sapiens, 96 h, read-out: IC50 cell proliferation. As to the method: as §1, §2, §3, §4, §5, §6
In test [6] the test system is BxPc-3. The settings on record: Homo sapiens, read-out: IC50 cell proliferation. As to the method:
as §1, §2, §3, §4, §5, §6

Test [7] deals with WiDr. The settings on record: Homo sapiens, 96 h, read-out: IC50 cell proliferation. The protocol:
as §1, §2, §3, §4, §5, §6

The test system of test [8] is A204. The settings on record: Homo sapiens, read-out: IC50 cell proliferation. As to the method: as §1, §2, §3, §4, §5, §6
The test system of test [9] is IGROV-1. The settings on record: Homo sapiens, read-out: IC50 cell proliferation. The protocol:
as §1, §2, §3, §4, §5, §6

Test [10] has as its system U-937. The settings on record: Homo sapiens, read-out: IC50 cell proliferation. As to the method: as §1, §2, §3, §4, §5, §6
Test [11] has as its system SNU-16. The following applies: Homo sapiens, read-out: IC50 cell proliferation. As to the method: as §1, §2, §3, §4, §5, §6
Test [12] concerns 8505C. The following applies: Homo sapiens, 96 h, read-out: IC50 cell proliferation. As to the method:
as §1, §2, §3, §4, §5, §6

The test system of test [13] is UACC-62. The following applies: Homo sapiens, read-out: IC50 cell proliferation. As to the method:
as §1, §2, §3, §4, §5, §6

In test [14] the test system is HT-144. The settings on record: Homo sapiens, read-out: IC50 cell proliferation. The protocol: as §1, §2, §3, §4, §5, §6
The test system of test [15] is A2058. The settings on record: Homo sapiens, read-out: IC50 cell proliferation. As to the method: as §1, §2, §3, §4, §5, §6
The test system of test [16] is SJCRH30. The following applies: Homo sapiens, 96 h, read-out: IC50 cell proliferation. The protocol: as §1, §2, §3, §4, §5, §6

Where two headings read alike, the source gives them in different places.

Consider `O=C(Nc1ccc2[nH]nc(-c3ccncc3)c2c1)C1CCN(CC(=O)N2CCN(c3ccc(-c4ncccn4)cc3)CC2)C1` (centres unmarked) [cpd. a], for which the IC50 in [1] (96 h, HT-29, Colon, BRAF V600E Heterozygous, 4 days continuous exposure) was 50 nM; in [2] (Melanoma, BRAF V600E Homozygous, 4 days continuous exposure), 100 nM; in [3] (Jijoye, Leukemia, BRAF V600V Wild type, 4 days continuous exposure) it was over 3000 nM; in [4] (N-87, Gastric, BRAF V600V Wild type, 4 days continuous exposure), 307 nM; in test [5] (SK-Mel-31, Melanoma, BRAF V600E Heterozygous, 4 days continuous exposure) it was 150 nM; in test [6] (96 h, BxPc-3, Pancreas, BRAF V600V Wild type, 4 days continuous exposure), 184 nM. Moreover, the IC50 is 39 nM in test [7] (Colon, BRAF V600E Heterozygous, 4 days continuous exposure); over 3000 nM in test [8] (96 h, A204, Rhabdomyosarcoma, BRAF V600V Wild type, 4 days continuous exposure); 146 nM in test [9] (96 h, IGROV-1, Ovarian, BRAF V600V Wild type, 4 days continuous exposure); over 3000 nM in [10] (96 h, U-937, Leukemia, BRAF V600V Wild type, 4 days continuous exposure); over 3000 nM in test [11] (96 h, SNU-16, Gastric, BRAF V600V Wild type, 4 days continuous exposure); 50 nM in test [12] (Thyroid, BRAF V600E Homozygous, 4 days continuous exposure). In addition, the IC50 in test [13] (96 h, UACC-62, Melanoma, BRAF V600E Homozygous, 4 days continuous exposure) was 30 nM; in test [14] (96 h, HT-144, Melanoma, BRAF V600E Homozygous, 4 days continuous exposure) it was 60 nM; in [15] (96 h, A2058, Melanoma, BRAF V600E Heterozygous, 4 days continuous exposure) it was 120 nM; in test [16] (SJCRH30, Rhabdomyosarcoma, BRAF V600V Wild type, 4 days continuous exposure), 2000 nM.
`O=C(NOC[C@H](O)CO)c1ccc(F)c(F)c1Nc1ccc(I)cc1F` [cpd. b, PD0325901]: the IC50 turned out to be 20 nM in [1] (HT-29, 96 h); 57 nM in [2]; 1000 nM in test [3]; 64 nM in [4]; 18 nM in [5]; 119 nM in test [6] (BXPC-3, 96 h). Besides, the IC50 in [7] amounted to 6 nM; in test [8] (A204, 96 h) it was 1000 nM; in [9] (IGROV-1, 96 h) it was 39 nM; in test [10] (U-937, 96 h), 1000 nM; in test [11] (SNU-16, 96 h), 1000 nM; in [12] it was 10 nM. Also, the IC50 in test [13] (UACC-62, 96 h) was 5 nM; in test [14] (HT-144, 96 h), 10 nM; in [15] (A2058, 96 h), 10 nM; in test [16], 1000 nM.

These data come from patent US20110158944A1, “BRAF BIOMARKERS” (priority 2007, published 2011).
